Measurements reported in PMC8286840, “Identifying SARS-CoV-2 antiviral compounds by screening for small molecule inhibitors of Nsp3 papain-like protease” (Biochemical Journal, 2021).
Counter-ions that a name gives are not always drawn. Like-named read-outs stand apart in the source and are kept apart here.

Columns and labels:
[1] = target: T1, SARS-CoV-2 PLpro (nsp3 1564–1878) (Severe acute respiratory syndrome coronavirus 2, UniProt P0DTD1); test: biochemical; parameters: FRET-quenched peptide (Pro3) cleavage by PLpro, 10 min pre-incubation, slope over 20 min, normalised to no-compound control; settings: high concentration screen, read-out: % of control remaining
[2] = target: T1, SARS-CoV-2 PLpro (nsp3 1564–1878); test: biochemical; parameters: FRET-quenched peptide (Pro3) cleavage by PLpro, 10 min pre-incubation, slope over 20 min, normalised to no-compound control; settings: low concentration screen, read-out: % of control remaining
Description: The plates were organized with columns 3–22 containing the compounds; the remaining columns were used for reaction controls including substrate only and substrate with enzyme but no compound (Figure 3Aii). The PLpro enzyme was pre-incubated with the compounds for 10 min, and then the reaction was initiated by the addition of substrate. […] We incubated the inhibitors with PLpro before the enzymatic reaction so that the slow-binding inhibitors will not be missed out [21]. […] Fluorescence was read on a Spark multimode microplate reader (Tecan) with an excitation wavelength at 330 nm and emission wavelength at 420 nm. […] An amount of 5 µl of the enzyme was pre-incubated with compounds for 10 min before the addition of 15 µl substrate. Fluorescence was monitored at 2 min for 20 min with 3 min intervals giving a total of seven readings.

OCCN1CCN(CC/C=C2/c3ccccc3Sc3ccc(C(F)(F)F)cc32)CC1 [cis-(Z)-Flupenthixol dihydrochloride]
remaining activity at 3.75 µM ([1]; Well no.=617): 98.7%
remaining activity at 1.25 µM ([2]; Well no.=617): 99.6%

O=C(O)[C@@H]1C[C@H](C(=O)O)N1 [cis-Azetidine-2,4-dicarboxylic acid]
remaining activity at 3.75 µM ([1]; Well no.=20): 99.7%
remaining activity at 1.25 µM ([2]; Well no.=20): 101%

CCn1nc(C)cc1C(=O)Nc1nc2cc(C(N)=O)cc(OC)c2n1C/C=C/Cn1c(NC(=O)c2cc(C)nn2CC)nc2cc(C(N)=O)cc(OCCCN3CCOCC3)c21 [diABZI STING agonist-1 (trihydrochloride)]
remaining activity at 3.75 µM ([1]; Well no.=8553): 102%
remaining activity at 1.25 µM ([2]; Well no.=8553): 110%

CCCCCCCCCCCCCCCCn1cc[n+](Cc2ccccc2)c1C [eEF-2 Kinase Inhibitor, NH125]
remaining activity at 3.75 µM ([1]; Well no.=2790): 108%
remaining activity at 1.25 µM ([2]; Well no.=2790): 102%

CCCCCC[C@@H]([C@@H](C)O)n1cnc2c(N)ncnc21 [erythro-9-(2-Hydroxy-3-nonyl)adenine hydrochloride]
remaining activity at 3.75 µM ([1]; Well no.=513): 105%
remaining activity at 1.25 µM ([2]; Well no.=513): 105%

CCOC(=O)[C@@H](N)CCC(=O)N[C@@H](CSCc1ccccc1)C(=O)N[C@@H](C(=O)OCC)c1ccccc1 [ethyl N5-((R)-3-(benzylthio)-1-(((R)-2-ethoxy-2-oxo-1-phenylethyl)amino)-1-oxopropan-2-yl)-L-glutaminate]
remaining activity at 3.75 µM ([1]; Well no.=5457): 108%
remaining activity at 1.25 µM ([2]; Well no.=5457): 105%

C#CC(N)CCC(=O)O (stereo not shown) [gamma-Acetylinic GABA]
remaining activity at 3.75 µM ([1]; Well no.=258): 94.8%
remaining activity at 1.25 µM ([2]; Well no.=258): 94%

N[C@H](CCC(=O)NCS(=O)(=O)O)C(=O)O [gamma-D-Glutamylaminomethylsulfonic acid]
remaining activity at 3.75 µM ([1]; Well no.=652): 94%
remaining activity at 1.25 µM ([2]; Well no.=652): 92.4%

COc1cc(C(O)C(=O)O)ccc1O (stereo not shown) [hydroxy(4-hydroxy-3-methoxyphenyl)acetic acid]
remaining activity at 3.75 µM ([1]; Well no.=5433): 108%
remaining activity at 1.25 µM ([2]; Well no.=5433): 103%

O[C@H]1[C@H](O)[C@@H](O)[C@H](O)[C@@H](O)[C@H]1O [i-Inositol]
remaining activity at 3.75 µM ([1]; Well no.=6495): 101%
remaining activity at 1.25 µM ([2]; Well no.=6495): 98.4%

O=C1NCCSc2c1sc1ccc(O)cc21 [kb NB 142-70]
remaining activity at 3.75 µM ([1]; Well no.=6738): 92.4%
remaining activity at 1.25 µM ([2]; Well no.=6738): 92%

CC(C(=O)O)c1ccc(CC2CCCC2=O)cc1 (stereo not shown) [loxoprofen]
remaining activity at 3.75 µM ([1]; Well no.=927): 105%
remaining activity at 1.25 µM ([2]; Well no.=927): 104%

CN1CCN2c3c(cccc31)[C@@H]1CN(CCCC(=O)c3ccc(F)cc3)CC[C@@H]12 [lumateperone (Tosylate)]
remaining activity at 3.75 µM ([1]; Well no.=7807): 108%
remaining activity at 1.25 µM ([2]; Well no.=7807): 104%

Cc1cc(C)c(S(=O)(=O)Nc2cccc(C(F)(F)F)c2)c(C)c1 [m -3M3FBS]
remaining activity at 3.75 µM ([1]; Well no.=5841): 98.2%
remaining activity at 1.25 µM ([2]; Well no.=5841): 99.6%

NC(N)=NCc1cccc(I)c1 [m -Iodobenzylguanidine hemisulfate salt]
remaining activity at 3.75 µM ([1]; Well no.=6075): 97.8%
remaining activity at 1.25 µM ([2]; Well no.=6075): 99.1%

NC(N)=NCc1cccc(I)c1 [m-Iodobenzylguanidine hemisulfate]
remaining activity at 3.75 µM ([1]; Well no.=777): 108%
remaining activity at 1.25 µM ([2]; Well no.=777): 105%

OC[C@@H](O)[C@@H](O)CO [meso-Erythritol]
remaining activity at 3.75 µM ([1]; Well no.=6547): 106%
remaining activity at 1.25 µM ([2]; Well no.=6547): 107%

CCCCCCCCOC(=O)/C=C/c1ccc(O)c(O)c1 [n-Octyl caffeate]
remaining activity at 3.75 µM ([1]; Well no.=4043): 95.8%
remaining activity at 1.25 µM ([2]; Well no.=4043): 93.2%

Oc1ccc2c3c1O[C@H]1c4[nH]c5c(c4C[C@@]4(O)[C@@H](C2)N(CC2CC2)CC[C@]314)C[C@@]1(O)[C@H]2Cc3ccc(O)c4c3[C@@]1(CCN2CC1CC1)[C@H]5O4 [nor-Binaltorphimine dihydrochloride]
remaining activity at 3.75 µM ([1]; Well no.=805): 97%
remaining activity at 1.25 µM ([2]; Well no.=805): 100%

Oc1ccc2ccccc2c1SSc1c(O)ccc2ccccc12 [p21-Activated Kinase Inhibitor III, IPA-3]
remaining activity at 3.75 µM ([1]; Well no.=2525): 102%
remaining activity at 1.25 µM ([2]; Well no.=2525): 99.9%

CSc1nc(-c2ccnc(NC(C)c3ccccc3)c2)c(-c2ccc(F)cc2)[nH]1 (stereo not shown) [p38 MAP Kinase Inhibitor III]
remaining activity at 3.75 µM ([1]; Well no.=2596): 94.5%
remaining activity at 1.25 µM ([2]; Well no.=2596): 94.7%

O=S(=O)(c1c(O)c(Cl)cc(Cl)c1Cl)c1c(O)c(Cl)cc(Cl)c1Cl [p38 MAP Kinase Inhibitor IV]
remaining activity at 3.75 µM ([1]; Well no.=2527): 103%
remaining activity at 1.25 µM ([2]; Well no.=2527): 97.2%

COc1cc(SC)ccc1C(=O)N1CCC(Cc2ccccc2)CC1 [p38 MAP Kinase Inhibitor VI, JX401]
remaining activity at 3.75 µM ([1]; Well no.=2529): 105%
remaining activity at 1.25 µM ([2]; Well no.=2529): 101%

NC(=O)c1ccc2[nH]ccc2c1 [p38 MAP Kinase Inhibitor VII, SD-169]
remaining activity at 3.75 µM ([1]; Well no.=2531): 94.8%
remaining activity at 1.25 µM ([2]; Well no.=2531): 99.1%

O=c1c(-c2ccc(F)cc2)c(-c2ccncc2)[nH]n1-c1ccc(Cl)cc1 [p38 MAP Kinase Inhibitor]
remaining activity at 3.75 µM ([1]; Well no.=2598): 99.2%
remaining activity at 1.25 µM ([2]; Well no.=2598): 97.4%

CC(=O)Nc1ccc(NC(=S)NC(=O)c2ccc(C(C)(C)C)cc2)cc1 [p53 Activator (Tenovin-1)]
remaining activity at 3.75 µM ([1]; Well no.=2901): 96.4%
remaining activity at 1.25 µM ([2]; Well no.=2901): 97.7%

CCOc1cc(C(C)(C)C)ccc1C1=N[C@@](C)(c2ccc(Cl)cc2)[C@@](C)(c2ccc(Cl)cc2)N1C(=O)N1CCN(CC(=O)N2CCOCC2)CC1 [p53 and MDM2 proteins-interaction-inhibitor (dihydrochloride)]
remaining activity at 3.75 µM ([1]; Well no.=6832): 94.5%
remaining activity at 3.75 µM ([1]; Well no.=7702): 106%
remaining activity at 1.25 µM ([2]; Well no.=6832): 98.9%
remaining activity at 1.25 µM ([2]; Well no.=7702): 107%

Nc1cc(Cl)c(NC2=NCCN2)c(Cl)c1 [p-Aminoclonidine hydrochloride]
remaining activity at 3.75 µM ([1]; Well no.=151): 102%
remaining activity at 1.25 µM ([2]; Well no.=151): 102%

O=C1C=CC(=O)C=C1 [p-Benzoquinone]
remaining activity at 3.75 µM ([1]; Well no.=166): 105%
remaining activity at 1.25 µM ([2]; Well no.=166): 102%

N[C@@H](Cc1ccc(F)cc1)C(=O)O [p-Fluoro-L-phenylalanine]
remaining activity at 3.75 µM ([1]; Well no.=707): 87%
remaining activity at 1.25 µM ([2]; Well no.=707): 95.3%

O=Cc1ccc(O)cc1 [p-Hydroxybenzaldehyde]
remaining activity at 3.75 µM ([1]; Well no.=6531): 103%
remaining activity at 1.25 µM ([2]; Well no.=6531): 103%

O=C(O)C=Cc1ccc(O)cc1 [p-Hydroxycinnamic acid]
remaining activity at 3.75 µM ([1]; Well no.=7161): 103%
remaining activity at 1.25 µM ([2]; Well no.=7161): 105%

Clc1cc(I)cc(Cl)c1NC1=NCCN1 [p-Iodoclonidine hydrochloride]
remaining activity at 3.75 µM ([1]; Well no.=873): 113%
remaining activity at 1.25 µM ([2]; Well no.=873): 110%

COc1ccccc1N1CCN(CCN(C(=O)c2ccc(F)cc2)c2ccccn2)CC1 [p-MPPF dihydrochloride]
remaining activity at 3.75 µM ([1]; Well no.=899): 101%
remaining activity at 1.25 µM ([2]; Well no.=899): 100%
